Non-standard residues stand in square brackets, D forms with d. No end group written: not given here. pGlu = O=C1CC[C@@H](C(=O)O)N1
Test system: mouse epidermal mitotic rate
Assay: change in mouse epidermal mitotic rate after intraperitoneal injection (Colcemid method)
Format: in vivo
Settings: 10^-13 moles of peptide injected per mouse, first three hours after injection, versus control animals from the same cage
Experimental: In the following Table 1 the in vivo result (change in mouse epidermal mitotic rate) has been described as an example for one of the dipeptides. The epidermal mitotic rate was measured for the first three hours after intraperitoneal injection of the dipeptide. Mitotic rate was determined by means of "Colcemid". A reduced rate was determined as a percentage in comparison with control animals from the same cage.

## [pGlu]-Gly
  Decrease in mitotic rate: 40%
